Results on seven molecules are retold here after patent US6653311B1, “5-lipoxygenase inhibitors: (2-azinylamino) quinone derivatives” (Board of Supervisors of Louisiana State University, priority 2002, dated 2003).

Where two headings read alike, the source gives them in different places.

One data set addresses T1, 5-lipoxygenase (5-LO) (Oryctolagus cuniculus, UniProt G1SNX0).
T1 construct: Polymorphonuclear leukocytes (PMNLs) were purified from rabbits by glycogen-intraperitoneal elicited intraperitoneal recruitment; endogenous in cells; host or cells: rabbit peritoneal polymorphonuclear leukocytes (PMNL), glycogen-elicited
T1 sequence (G1SNX0 1-674): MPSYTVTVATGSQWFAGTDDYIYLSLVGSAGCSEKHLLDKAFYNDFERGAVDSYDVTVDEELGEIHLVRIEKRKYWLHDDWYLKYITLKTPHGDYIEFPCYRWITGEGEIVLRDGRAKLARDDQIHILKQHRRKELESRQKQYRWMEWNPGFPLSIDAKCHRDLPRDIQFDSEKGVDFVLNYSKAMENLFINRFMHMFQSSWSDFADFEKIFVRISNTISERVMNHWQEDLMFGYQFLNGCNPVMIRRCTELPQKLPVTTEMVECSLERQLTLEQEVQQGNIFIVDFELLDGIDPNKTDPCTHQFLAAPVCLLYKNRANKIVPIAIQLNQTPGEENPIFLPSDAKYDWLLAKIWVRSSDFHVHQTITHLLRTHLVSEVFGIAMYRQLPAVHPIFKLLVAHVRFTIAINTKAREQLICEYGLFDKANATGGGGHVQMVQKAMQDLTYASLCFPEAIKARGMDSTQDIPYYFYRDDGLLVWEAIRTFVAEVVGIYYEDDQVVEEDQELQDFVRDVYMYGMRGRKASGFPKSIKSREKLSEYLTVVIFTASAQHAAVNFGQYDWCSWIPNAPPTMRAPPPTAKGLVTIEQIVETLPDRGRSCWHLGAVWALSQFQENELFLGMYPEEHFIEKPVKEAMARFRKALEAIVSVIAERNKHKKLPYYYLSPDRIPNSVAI
Description: Radioisotopic assay of 5-LO activity (LTB4 formation from 14C-arachidonic acid) in rabbit peritoneal PMNL stimulated with A-23187. Type of data set: cell-based. Particulars: for inhibition at 1 µM: rabbit peritoneal neutrophils (PMNL), mean ± s.d. of three experiments in duplicate, read-out: % Inhibition (percent inhibition of LTB4 formation); for in vitro 5-LO activity in words: peritoneal PMNL. The source says: The 5-LO enzyme, which is found primarily in cells of myeloid origin such as polymorphonuclear leukocytes (“PMNL”), eosinophils, and macrophages, catalyzes the first step of the biochemical pathway in which arachadonic acid (“AA”) is,converted into LTA4. […] To test the inhibition of the quinone derivatives on the activity of 5-LO rabbit polymorphonuclear leucocytes (PMNLs) were used.
Polymorphonuclear leukocytes (PMNLs) were purified from rabbits by glycogen-intraperitoneal elicited intraperitoneal recruitment, as descrited in T. Yatabe et al., “Studies on 5-lipoxygenase inhibitors: I. Synthesis and 5-lipoxygenase inhibitory activity of novel hydroxanic acid derivatives,” chem. Pharm. Bull., vol. 46, pp. 966-972 (1998). An intraperitoneal injection of 300 mL of 0.1% (w/v) glycogen in sterile saline was administered 6 h before the rabbits were sacrificed by an intravascular injection of Nembutal. Peritoneal exudates were collected in 5 μM EGTA, and residual red cells were removed by lysis in ammonium chloride. These cell preparations were obtained with greater than 96% purity, as assessed by Wright-Giemsa staining and greater than 95% viability as assessed by Trypan blue exclusion.
PMNL cells in suspension were pre-incubated for 20 min at room temperature with ^14C-labeled arachadonic acid (AA) and diluted to 3000 cells μL^−1. Thereafter, the calcium ionophore A-23187 (1 μg/mL) was added to stimulate LTB4 production, and the cells further incubated for 15 min under stirring at 37° C. After incubation, the aqueous samples were successively shaken with a mixture of chloroform/methanol/formic acid (12:12:1) for 30 sec and then with chloroform for 10 sec. Organic phases containing LTB4, 5-HPETE (5-hydroperoxyeicosatetraenoic acid), diHPETEs (dihydroperoxyeicosatetraenoic acids), and prostaglandins (PGs) were pooled, evaporated to dryness under nitrogen and dissolved into a small amount of chloroform-MeOH (1:1). Separation of the 5-LO metabolites was performed by thin layer chromatography (TLC) on silica gel G plates developed in diethyl ether-hexane-acetic acid (60:40:1, v/v/v).
Bands containing 5-lipoxygenase (5-LO) metabolites were scraped from the TLC plates, and ^14C levels were quantitatively measured by liquid scintillation. 5-LO activity was an obtained from the amount of ^14C-arachidonic acid converted into LTB4 after the prelabeled PMNL cells were stimulated to produce LTB4 by the calcium ionophore as described above. IC50 was calculated as the concentration of the 5-LO antagonist that produced 50% inhibition of the metabolite conversion.
[…] IC50 values, calculated as theconcentration of test compound required to cause 50% inhibition of LTB4 formation, were also determined for some representative examples. […] These compounds, in general, correspond to compounds bearing the more lipophilic quinone fragments. […] See S. Ohkawa et al., “Dual Inhibition of Thromboxane A2 Synthetase and 5-Lipoxygenase with Scavenging Activity of Active Oxygen Species. Synthesis of a Novel Series of (3-Pyridylmethyl)benzoquinone Derivatives,” J. Med. Chem., vol. 34, pp. 267-276 (1991).

In data set [1] the test system is arachidonic acid-induced ear inflammation in mice. In words: Arachidonic acid-induced ear inflammation in mice (AAE test). The data set is classed as in vivo. Particulars: for change in vivo at 50 µg/ear / change in vivo at 100 µg/ear / change in vivo at 250 µg/ear: Mus musculus, mice, topical, read-out: % inhibition of AA-induced ear inflammation; for change in vivo at 50 µg/ear: 50 μg/ear; for change in vivo at 100 µg/ear: 100 μg/ear; for change in vivo at 250 µg/ear: 250 μg/ear.

The next data set deals with COX-1 (Homo sapiens, UniProt P23219). In words: In vitro inhibition of COX-1 activity. Conditions: read-out: COX-1 percent inhibition.
Chain of COX-1 (P23219 24-599): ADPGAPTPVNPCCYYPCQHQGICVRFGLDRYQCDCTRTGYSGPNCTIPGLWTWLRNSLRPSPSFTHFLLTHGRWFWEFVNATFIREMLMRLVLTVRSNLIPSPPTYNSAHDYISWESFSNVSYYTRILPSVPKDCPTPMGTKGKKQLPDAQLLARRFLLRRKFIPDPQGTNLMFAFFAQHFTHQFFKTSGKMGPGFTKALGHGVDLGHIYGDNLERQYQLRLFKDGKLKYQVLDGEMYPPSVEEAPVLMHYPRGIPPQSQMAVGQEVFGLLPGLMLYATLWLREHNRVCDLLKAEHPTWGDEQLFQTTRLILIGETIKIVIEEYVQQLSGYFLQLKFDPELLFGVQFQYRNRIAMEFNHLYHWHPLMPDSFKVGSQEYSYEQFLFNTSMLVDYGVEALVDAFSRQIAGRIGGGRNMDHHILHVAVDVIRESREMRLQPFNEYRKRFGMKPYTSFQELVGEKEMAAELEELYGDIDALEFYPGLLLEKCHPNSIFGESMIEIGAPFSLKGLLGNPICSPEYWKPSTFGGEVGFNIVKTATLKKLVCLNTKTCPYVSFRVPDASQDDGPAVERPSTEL
Another data set concerns the target T2, COX-2 (Homo sapiens, UniProt P35354).
T2 sequence (P35354 18-604): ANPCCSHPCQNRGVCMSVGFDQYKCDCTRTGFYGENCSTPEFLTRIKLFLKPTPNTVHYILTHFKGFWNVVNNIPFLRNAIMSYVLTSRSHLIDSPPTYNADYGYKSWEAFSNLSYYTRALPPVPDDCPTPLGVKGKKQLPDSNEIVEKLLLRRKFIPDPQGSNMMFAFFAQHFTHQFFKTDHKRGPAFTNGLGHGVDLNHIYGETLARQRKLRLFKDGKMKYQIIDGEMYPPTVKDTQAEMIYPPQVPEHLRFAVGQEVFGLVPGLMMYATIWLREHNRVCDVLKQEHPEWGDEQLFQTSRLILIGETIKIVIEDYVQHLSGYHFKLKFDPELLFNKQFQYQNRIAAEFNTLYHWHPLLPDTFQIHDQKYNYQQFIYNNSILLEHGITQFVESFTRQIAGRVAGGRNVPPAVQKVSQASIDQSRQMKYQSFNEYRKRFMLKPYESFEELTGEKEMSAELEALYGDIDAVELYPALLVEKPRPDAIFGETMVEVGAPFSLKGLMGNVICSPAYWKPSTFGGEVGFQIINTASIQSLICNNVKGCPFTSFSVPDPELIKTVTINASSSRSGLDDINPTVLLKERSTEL
In words: In vitro inhibition of COX-2 activity. Particulars: read-out: COX-2 percent inhibition.

A further data set deals with T3, 5-LO (Rattus norvegicus, UniProt P12527).
T3 sequence (P12527 1-673): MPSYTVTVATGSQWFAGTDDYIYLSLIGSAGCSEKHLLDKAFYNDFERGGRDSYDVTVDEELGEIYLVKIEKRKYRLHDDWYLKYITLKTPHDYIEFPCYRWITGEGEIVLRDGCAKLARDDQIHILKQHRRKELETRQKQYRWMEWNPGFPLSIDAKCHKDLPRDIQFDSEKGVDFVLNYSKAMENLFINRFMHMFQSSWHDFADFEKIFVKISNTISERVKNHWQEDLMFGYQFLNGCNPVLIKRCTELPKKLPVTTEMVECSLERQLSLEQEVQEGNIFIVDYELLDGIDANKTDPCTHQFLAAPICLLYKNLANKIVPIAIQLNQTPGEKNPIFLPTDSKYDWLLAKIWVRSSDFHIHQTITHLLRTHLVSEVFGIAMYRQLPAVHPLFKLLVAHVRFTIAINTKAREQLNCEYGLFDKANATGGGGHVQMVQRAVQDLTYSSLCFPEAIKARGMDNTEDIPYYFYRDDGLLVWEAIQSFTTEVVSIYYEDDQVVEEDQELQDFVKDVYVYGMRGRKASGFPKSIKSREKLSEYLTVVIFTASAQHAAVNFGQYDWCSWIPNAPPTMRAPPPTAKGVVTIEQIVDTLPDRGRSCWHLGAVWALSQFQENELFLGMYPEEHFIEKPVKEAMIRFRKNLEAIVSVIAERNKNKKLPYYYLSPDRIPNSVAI
In words: 5-LO inhibition by radioimmunoassay (RIA) in rat peritoneal PMNL. Conditions: inhibitors at 'AM final concentration' [sic], mean ± SD.

Where [2] appears, read: measured on PMNL, read-out: IC50 (concentration causing 50% inhibition of LTB4 formation), in parentheses (converted).

Description for COX-1: (§1) Percent inhibition mean values ±SD from at least three individual determinations are shown.
Description for COX-2: as §1

A word on the inhibition: it is the drop in the measured response relative to a control, in per cent. Usually melting point stands for the temperature, or range, at which the solid turns liquid. The molecule `CC1=CC(=O)C(Nc2ccccn2)=CC1=O` [Compound 4c, 2-Methyl-5-(pyridin-2-ylamino)-[1,4]benzoquinone] returned a melting point of 137 to 139 °C. Further, at 5-lipoxygenase (5-LO) (PMNL, read-out: IC50 (5-LO, LTB4 formation)), the IC50 is 18 nM. In addition, on 5-lipoxygenase (5-LO), the inhibition at 1 µM is 94% and the “in vitro 5-LO activity in words” value is “potent in vitro 5-LO inhibitors”. For the same molecule, the “% inhibition (AAE test)” value in data set [1] (4c 100 mg (ear) as printed, alone or co-applied with Indomethacin) is recorded as 66%. Also, in data set [1], the change in vivo at 50 µg/ear was -52.8 ± 6.4%, the change in vivo at 100 µg/ear is -63.7 ± 3.9% and the change in vivo at 250 µg/ear is -84.9 ± 2.4%. Moreover, the inhibition at 500 µM at COX-1 is 5.2 ± 6.2%. For the same molecule, at COX-2, the inhibition at 500 µM is 20.1 ± 0.7%. The same molecule showed a 5-LO percent inhibition on 5-LO of 85.8 ± 13.1%.

`COC1=C(OC)C(=O)C(Nc2ccccn2)=C(C)C1=O` [Compound 4e, 2,3-Dimethoxy-5-methyl-6-(pyridin-2-ylamino)-[1,4]benzoquinone]: the melting point was 79 to 81 °C. For the same molecule, at 5-lipoxygenase (5-LO), the inhibition at 1 µM was found to be 92 ± 4.7% and the “in vitro 5-LO activity in words” value is listed as “potent in vitro 5-LO inhibitors”. Further, on 5-lipoxygenase (5-LO) (setting [2]), the IC50 is 155 nM. The inhibition at 500 µM at COX-1 was found to be 11.2 ± 2.7%. The inhibition at 500 µM at COX-2 was 9.4 ± 0.4%. Besides, the 5-LO percent inhibition at 5-LO worked out at 95.4 ± 4.0%.

With `O=C1C=C(Nc2ccccn2)C(=O)c2ccccc21` [Compound 4i, 2-(Pyridin-2-ylamino)-[1,4]naphthoquinone], the melting point lay within 205 to 206 °C. Moreover, on 5-lipoxygenase (5-LO), the inhibition at 1 µM is 100 ± 0.4% and the “in vitro 5-LO activity in words” value was “potent in vitro 5-LO inhibitors”. Further, the IC50 on 5-lipoxygenase (5-LO) (setting [2]) is 45 nM. Further, in data set [1], the change in vivo at 100 µg/ear was -20.4 ± 2.1%. Moreover, on COX-1, the inhibition at 500 µM was determined as 23.1 ± 4.6%. In addition, the inhibition at 500 µM on COX-2 turned out to be 16.5 ± 6.1%. This molecule yielded a 5-LO percent inhibition on 5-LO of 86.2 ± 10.0%.

Molecule `O=C1C=C(Nc2ccc(Br)cn2)C(=O)c2ccccc21` [Compound 4l, 2-(5-Bromopyndin-2-ylamino)-[1,4]naphthoquinone] yielded a melting point of 243 to 244 °C. Also, on 5-lipoxygenase (5-LO), the inhibition at 1 µM was 100 ± 0.5% and the “in vitro 5-LO activity in words” value is “potent in vitro 5-LO inhibitors”. For the same molecule, the IC50 at 5-lipoxygenase (5-LO) (setting [2]) is 142 nM. In data set [1], the change in vivo at 100 µg/ear is -42.2 ± 3.1% and the change in vivo at 250 µg/ear is -30.6 ± 2.2%. Besides, the inhibition at 500 µM on COX-1 was found to be 16.8 ± 1.4%. For the same molecule, the inhibition at 500 µM at COX-2 was found to be 8 ± 3.6%. The molecule further displayed a 5-LO percent inhibition at 5-LO of 85.5 ± 4.5%.

`CC1=CC(=O)C(Nc2ncccn2)=CC1=O` [Compound 4p, 2-Methyl-5-(pyrimidin-2-ylamino)-[1,4]benzoquinone]: the melting point was in the range of 172 to 174 °C. Besides, on 5-lipoxygenase (5-LO), the inhibition at 1 µM came to 62 ± 1.7%. Further, the inhibition at 500 µM at COX-1 was determined as 8.4 ± 6.4%. Moreover, the inhibition at 500 µM at COX-2 is 0%. At 5-LO, this molecule registered a 5-LO percent inhibition of 90.4 ± 3.3%.

Take `O=C1C=C(Nc2ncccn2)C(=O)c2ccccc21` [Compound 4r, 2-(Pyrimidin-2-ylamino)-[1,4]naphthoquinone]: the melting point fell in the range of 245 to 247 °C. On 5-lipoxygenase (5-LO), the inhibition at 1 µM amounted to 98 ± 1.1% and the “in vitro 5-LO activity in words” value is “potent in vitro 5-LO inhibitors”. On 5-lipoxygenase (5-LO) (setting [2]), the IC50 is 165 nM. Also, in data set [1], the change in vivo at 100 µg/ear is -40 ± 1.9% and the change in vivo at 250 µg/ear is -29 ± 1.8%. For the same molecule, on COX-1, the inhibition at 500 µM came out at 14.4 ± 1.3%. In addition, the inhibition at 500 µM at COX-2 turned out to be 6.6 ± 14.9%. Also, the 5-LO percent inhibition on 5-LO is 96.4 ± 1.9%.

Turning to `CC1=C(C)C(=O)C(Nc2nc(C)cc(C)n2)=CC1=O` [Compound 4s, 2,3-Dirnethyl-5-(4,6-dimethylpyfimidin-2-ylamino)-[1,4]benzoquinone], the melting point was 188 to 189 °C. Moreover, at 5-lipoxygenase (5-LO), the inhibition at 1 µM came to 96 ± 1.7% and the “in vitro 5-LO activity in words” value is “potent in vitro 5-LO inhibitors”. Also, on 5-lipoxygenase (5-LO) (setting [2]), the IC50 is 175 nM. In data set [1], the change in vivo at 50 µg/ear is -17.3 ± 1.1% and the change in vivo at 100 µg/ear is -33.9 ± 3.9%. Moreover, at COX-1, the inhibition at 500 µM was 8.4 ± 11.6%. On COX-2, the inhibition at 500 µM worked out at 3.3 ± 12.9%. The molecule also gave a 5-LO percent inhibition on 5-LO of 89.6 ± 2.3%.
